Source: the NIST ThermoML archive (doi:10.1021/acs.jced.5b00114)
Where “and” joins values, the source holds several entries; their conditions need not be identical. Identical values can stand only once. Numbers after ± are expanded uncertainties.

Assay: mn = molality of the nth substance listed, in mol/kg
Conditions: 101 kPa, Liquid; for viscosity: Capillary tube (Ostwald / Ubbelohde) method; for mass density: Vibrating tube method

**Q.** Which results are given for `Cc1ncc(CO)c(CO)c1O.Cl` [5-hydroxy-6-methyl-3,4-pyridinedimethanol hydrochloride] + O?
**A.** viscosity (293.15 K, m1 = 0.0999): 1.044 ± 0.022 mPa·s; viscosity (293.15 K, m1 = 0.1): 1.044 ± 0.022 mPa·s; viscosity (293.15 K, m1 = 0.1008): 1.044 ± 0.022 mPa·s; viscosity (293.15 K, m1 = 0.1992): 1.084 ± 0.023 mPa·s; viscosity (293.15 K, m1 = 0.2016): 1.085 ± 0.023 mPa·s; viscosity (293.15 K, m1 = 0.2025): 1.085 ± 0.023 mPa·s; viscosity (293.15 K, m1 = 0.3): 1.127 ± 0.024 mPa·s; viscosity (293.15 K, m1 = 0.3014): 1.127 ± 0.024 mPa·s; viscosity (293.15 K, m1 = 0.3999): 1.169 ± 0.025 mPa·s; viscosity (293.15 K, m1 = 0.4001): 1.172 ± 0.025 mPa·s; mass density (293.15 K, m1 = 0.0999): 1004.23 ± 1 kg/m3; mass density (293.15 K, m1 = 0.1): 1004.23 ± 1 kg/m3; mass density (293.15 K, m1 = 0.1008): 1004.28 ± 1 kg/m3; mass density (293.15 K, m1 = 0.1992): 1010 ± 1 kg/m3; mass density (293.15 K, m1 = 0.2016): 1010.1 ± 1 kg/m3 and 1010.09 ± 1 kg/m3; mass density (293.15 K, m1 = 0.2025): 1010.19 ± 1 kg/m3; mass density (293.15 K, m1 = 0.3): 1015.66 ± 1 kg/m3 and 1015.67 ± 1 kg/m3; mass density (293.15 K, m1 = 0.3014): 1015.74 ± 1 kg/m3; mass density (293.15 K, m1 = 0.3999): 1021.12 ± 1 kg/m3 and 1021.11 ± 1 kg/m3; mass density (293.15 K, m1 = 0.4001): 1021.16 ± 1 kg/m3; viscosity (303.15 K, m1 = 0.0999): 0.829 ± 0.018 mPa·s; viscosity (303.15 K, m1 = 0.1): 0.83 ± 0.017 mPa·s; viscosity (303.15 K, m1 = 0.1008): 0.83 ± 0.018 mPa·s; viscosity (303.15 K, m1 = 0.1992): 0.861 ± 0.018 mPa·s; viscosity (303.15 K, m1 = 0.2016): 0.861 ± 0.018 mPa·s; viscosity (303.15 K, m1 = 0.2025): 0.862 ± 0.018 mPa·s; viscosity (303.15 K, m1 = 0.3): 0.894 ± 0.019 mPa·s and 0.893 ± 0.019 mPa·s; viscosity (303.15 K, m1 = 0.3014): 0.894 ± 0.019 mPa·s; viscosity (303.15 K, m1 = 0.3999): 0.926 ± 0.019 mPa·s; viscosity (303.15 K, m1 = 0.4001): 0.926 ± 0.02 mPa·s; mass density (303.15 K, m1 = 0.0999): 1001.56 ± 1 kg/m3; mass density (303.15 K, m1 = 0.1): 1001.57 ± 1 kg/m3; mass density (303.15 K, m1 = 0.1008): 1001.61 ± 1 kg/m3; mass density (303.15 K, m1 = 0.1992): 1007.23 ± 1 kg/m3; mass density (303.15 K, m1 = 0.2016): 1007.34 ± 1 kg/m3; mass density (303.15 K, m1 = 0.2025): 1007.42 ± 1 kg/m3; mass density (303.15 K, m1 = 0.3): 1012.81 ± 1 kg/m3; mass density (303.15 K, m1 = 0.3014): 1012.88 ± 1 kg/m3; mass density (303.15 K, m1 = 0.3999): 1018.15 ± 1 kg/m3; mass density (303.15 K, m1 = 0.4001): 1018.19 ± 1 kg/m3; viscosity (313.15 K, m1 = 0.0999): 0.678 ± 0.014 mPa·s; viscosity (313.15 K, m1 = 0.1): 0.679 ± 0.014 mPa·s; viscosity (313.15 K, m1 = 0.1008): 0.679 ± 0.014 mPa·s; viscosity (313.15 K, m1 = 0.1992): 0.703 ± 0.015 mPa·s; viscosity (313.15 K, m1 = 0.2016): 0.704 ± 0.015 mPa·s and 0.703 ± 0.015 mPa·s; viscosity (313.15 K, m1 = 0.2025): 0.704 ± 0.015 mPa·s; viscosity (313.15 K, m1 = 0.3): 0.729 ± 0.015 mPa·s; viscosity (313.15 K, m1 = 0.3014): 0.729 ± 0.015 mPa·s; viscosity (313.15 K, m1 = 0.3999): 0.755 ± 0.016 mPa·s; viscosity (313.15 K, m1 = 0.4001): 0.755 ± 0.016 mPa·s; mass density (313.15 K, m1 = 0.0999): 998.03 ± 1 kg/m3; mass density (313.15 K, m1 = 0.1): 998.04 ± 1 kg/m3; mass density (313.15 K, m1 = 0.1008): 998.1 ± 1 kg/m3; mass density (313.15 K, m1 = 0.1992): 1003.65 ± 1 kg/m3; mass density (313.15 K, m1 = 0.2016): 1003.75 ± 1 kg/m3 and 1003.74 ± 1 kg/m3; mass density (313.15 K, m1 = 0.2025): 1003.85 ± 1 kg/m3; mass density (313.15 K, m1 = 0.3): 1009.15 ± 1 kg/m3; mass density (313.15 K, m1 = 0.3014): 1009.21 ± 1 kg/m3; mass density (313.15 K, m1 = 0.3999): 1014.45 ± 1 kg/m3; mass density (313.15 K, m1 = 0.4001): 1014.46 ± 1 kg/m3; viscosity (323.15 K, m1 = 0.0999): 0.568 ± 0.012 mPa·s; viscosity (323.15 K, m1 = 0.1): 0.568 ± 0.012 mPa·s; viscosity (323.15 K, m1 = 0.1008): 0.568 ± 0.012 mPa·s; viscosity (323.15 K, m1 = 0.1992): 0.587 ± 0.012 mPa·s; viscosity (323.15 K, m1 = 0.2016): 0.587 ± 0.012 mPa·s; viscosity (323.15 K, m1 = 0.2025): 0.589 ± 0.013 mPa·s; viscosity (323.15 K, m1 = 0.3): 0.608 ± 0.013 mPa·s; viscosity (323.15 K, m1 = 0.3014): 0.609 ± 0.013 mPa·s; viscosity (323.15 K, m1 = 0.3999): 0.629 ± 0.013 mPa·s; viscosity (323.15 K, m1 = 0.4001): 0.629 ± 0.013 mPa·s; mass density (323.15 K, m1 = 0.0999): 993.8 ± 1 kg/m3; mass density (323.15 K, m1 = 0.1): 993.81 ± 1 kg/m3; mass density (323.15 K, m1 = 0.1008): 993.86 ± 1 kg/m3; mass density (323.15 K, m1 = 0.1992): 999.27 ± 1 kg/m3; mass density (323.15 K, m1 = 0.2016): 999.43 ± 1 kg/m3; mass density (323.15 K, m1 = 0.2025): 999.49 ± 1 kg/m3; mass density (323.15 K, m1 = 0.3): 1004.74 ± 1 kg/m3; mass density (323.15 K, m1 = 0.3014): 1004.83 ± 1 kg/m3; mass density (323.15 K, m1 = 0.3999): 1010.01 ± 1 kg/m3; mass density (323.15 K, m1 = 0.4001): 1010.02 ± 1 kg/m3
